# Measured values published in Sander's compilation of Henry's law constants.
# Experiments:
# [1] = Henry solubility constant Hcp at 293 K (mol/(m3 Pa))
# [2] = Henry solubility constant Hcp at 298.15 K (mol/(m3 Pa))
# [3] = reference: Chiang et al. (1998)
# [4] = reference: Pearson and McConnell (1975)
# [5] = reference: Yurteri et al. (1987)
# [6] = reference: Bissonette et al. (1990)
# [7] = reference: Munz and Roberts (1987)
# [8] = reference: Warner et al. (1980)
# [9] = reference: Sheikheldin et al. (2001)
# [10] = reference: Dohnal and Fenclová (1995)
# [11] = reference: De Maagd et al. (1998)
# [12] = reference: Vitenberg et al. (1975)
# [13] = reference: Schuhfried et al. (2011)
# [14] = reference: Blatchley et al. (1992)
# [15] = reference: Kames and Schurath (1995)
# [16] = reference: Wolfenden and Williams (1983)
# [17] = reference: Jantunen and Bidleman (2006)
# [18] = reference: McFall et al. (2020)
# [19] = reference: Sahsuvar et al. (2003)
# [20] = reference: Copolovici and Niinemets (2005)
compound,measurement,setting,value
"CC(Cl)(Cl)Cl [1,1,1-trichloroethane]",Henry solubility constant Hcp at 293 K,[1]; [3],0.00071
same,Henry solubility constant Hcp at 293 K,[1]; [4],0.00029
same,Henry solubility constant Hcp at 293 K,[1]; [5],0.00063
same,Henry solubility constant Hcp,[2]; [6],0.00051
same,Henry solubility constant Hcp,[2]; reference: Chen et al. (2012),0.00054
same,Henry solubility constant Hcp,[2]; reference: Ervin et al. (1980),0.00027
same,Henry solubility constant Hcp,[2]; reference: Gossett (1987),0.00059
same,Henry solubility constant Hcp,[2]; reference: Gossett et al. (1985),0.00057
same,Henry solubility constant Hcp,[2]; reference: Hunter-Smith et al. (1983),0.00076
same,Henry solubility constant Hcp,[2]; reference: Lincoff and Gossett (1984),0.00059
same,Henry solubility constant Hcp,[2]; [7],0.00058
same,Henry solubility constant Hcp,[2]; reference: Robbins et al. (1993),0.00055
same,Henry solubility constant Hcp,[2]; reference: Turner et al. (1996),0.00048
same,Henry solubility constant Hcp,[2]; reference: Vane and Giroux (2000),0.00062
same,Henry solubility constant Hcp,[2]; [8],0.002
"C=C(Cl)Cl [1,1-dichloroethene]",Henry solubility constant Hcp at 293 K,[1]; [3],0.00044
same,Henry solubility constant Hcp at 293 K,[1]; [4],6.6e-05
same,Henry solubility constant Hcp at 293 K,[1]; [5],0.00013
same,Henry solubility constant Hcp,[2]; [6],0.00034
same,Henry solubility constant Hcp,[2]; reference: Ervin et al. (1980),0.00014
same,Henry solubility constant Hcp,[2]; reference: Gossett (1987),0.00038
same,Henry solubility constant Hcp,[2]; [8],0.00066
"OCCO [1,2-ethanediol]",Henry solubility constant Hcp at 293 K,[1]; reference: Bone et al. (1983),4000
same,Henry solubility constant Hcp,[2]; reference: Butler and Ramchandani (1935),160
"Clc1ccc(Cl)cc1 [1,4-dichlorobenzene]",Henry solubility constant Hcp at 293 K,[1]; [3],0.0025
same,Henry solubility constant Hcp at 293 K,[1]; [5],0.0052
same,Henry solubility constant Hcp,[2]; reference: Li et al. (2008),0.0033
same,Henry solubility constant Hcp,[2]; [8],0.0036
"Cc1cccc(O)c1C [1-hydroxy-2,3-dimethylbenzene]",Henry solubility constant Hcp at 293 K,[1]; [9],9.3
same,Henry solubility constant Hcp,[2]; [10],10
"Cc1ccc(O)c(C)c1 [1-hydroxy-2,4-dimethylbenzene]",Henry solubility constant Hcp at 293 K,[1]; [9],6.6
same,Henry solubility constant Hcp,[2]; [10],4.9
"c1ccc2c(c1)Cc1ccccc1-2 [2,3-benzindene]",Henry solubility constant Hcp at 293 K,[1]; [11],0.15
same,Henry solubility constant Hcp,[2]; reference: Bamford et al. (1999b),0.079
same,Henry solubility constant Hcp,[2]; [8],0.084
"Oc1ccc(Cl)cc1Cl [2,4-dichlorophenol]",Henry solubility constant Hcp at 293 K,[1]; [9],3.4
same,Henry solubility constant Hcp,[2]; reference: Tabai et al. (1997),6.6
Oc1ccccc1Cl [2-hydroxychlorobenzene],Henry solubility constant Hcp at 293 K,[1]; [9],1.5
same,Henry solubility constant Hcp,[2]; reference: Tabai et al. (1997),3.6
Cc1ccc2ccccc2c1 [2-methylnaphthalene],Henry solubility constant Hcp at 293 K,[1]; [11],0.022
CN(C)N=O [N-nitrosodimethylamine],Henry solubility constant Hcp at 293 K,[1]; reference: Haruta et al. (2011),4.1
same,Henry solubility constant Hcp,[2]; reference: Klein (1982),6.1
same,Henry solubility constant Hcp,[2]; reference: Thompson et al. (2018),0.29
c1ccc2c(c1)-c1cccc3cccc-2c13 [benzo[jk]fluorene],Henry solubility constant Hcp at 293 K,[1]; [11],0.91
CCOP(=S)(OCC)Oc1nc(Cl)c(Cl)cc1Cl [chlorpyrifos],Henry solubility constant Hcp at 293 K,[1]; reference: Rice et al. (1997b),3.1
FC(F)(Cl)Cl [dichlorodifluoromethane],Henry solubility constant Hcp at 293 K,[1]; [4],2.5e-05
same,Henry solubility constant Hcp,[2]; [7],3.1e-05
same,Henry solubility constant Hcp,[2]; reference: Park et al. (1982),2.9e-05
same,Henry solubility constant Hcp,[2]; reference: Reichl (1995),3e-05
same,Henry solubility constant Hcp,[2]; reference: Scharlin and Battino (1994),2.9e-05
same,Henry solubility constant Hcp,[2]; reference: Scharlin and Battino (1995),2.9e-05
same,Henry solubility constant Hcp,[2]; reference: Warner and Weiss (1985),2.9e-05
ClC1=C(Cl)[C@]2(Cl)[C@@H]3[C@@H]4C[C@@H]([C@H]5O[C@@H]45)[C@@H]3[C@@]1(Cl)C2(Cl)Cl [dieldrin],Henry solubility constant Hcp at 293 K,[1]; reference: Slater and Spedding (1981),0.34
same,Henry solubility constant Hcp,[2]; [8],0.17
CCSSCC [diethyl disulfide],Henry solubility constant Hcp at 293 K,[1]; [12],0.0047
same,Henry solubility constant Hcp,[2]; [13],0.0037
CSC [dimethyl sulfide],Henry solubility constant Hcp at 293 K,[1]; [12],0.0061
same,Henry solubility constant Hcp,[2]; reference: Barcellos da Rosa et al. (2003),0.0064
same,Henry solubility constant Hcp,[2]; reference: Bruneel et al. (2016),0.0047
same,Henry solubility constant Hcp,[2]; reference: Coquelet and Richon (2005),0.0052
same,Henry solubility constant Hcp,[2]; reference: Dacey et al. (1984),0.0055
same,Henry solubility constant Hcp,[2]; reference: De Bruyn et al. (1995b),0.0047
same,Henry solubility constant Hcp,[2]; reference: Gershenzon et al. (2001),0.0047
same,Henry solubility constant Hcp,[2]; reference: Iliuta and Larachi (2005a),0.0055
same,Henry solubility constant Hcp,[2]; reference: Lovelock et al. (1972),0.0016
same,Henry solubility constant Hcp,[2]; reference: Marin et al. (1999),0.016
same,Henry solubility constant Hcp,[2]; reference: Pollien et al. (2003),0.0049
same,Henry solubility constant Hcp,[2]; [13],0.0046
same,Henry solubility constant Hcp,[2]; reference: Straver and de Loos (2005),0.0049
same,Henry solubility constant Hcp,[2]; reference: Wong and Wang (1997),0.0042
CC#N [ethanenitrile],Henry solubility constant Hcp at 293 K,[1]; reference: Yu (1992),0.082
same,Henry solubility constant Hcp,[2]; reference: Bebahani et al. (2002),0.49
same,Henry solubility constant Hcp,[2]; reference: Benkelberg et al. (1995),0.53
same,Henry solubility constant Hcp,[2]; reference: Hamm et al. (1984),0.53
same,Henry solubility constant Hcp,[2]; reference: Ji and Evans (2007),0.52
same,Henry solubility constant Hcp,[2]; reference: Snider and Dawson (1985),0.48
NCCO [ethanolamine],Henry solubility constant Hcp at 293 K,[1]; reference: Bone et al. (1983),60000
same,Henry solubility constant Hcp,[2]; reference: Kim et al. (2008),4200
ClC(Cl)=C(Cl)C(Cl)=C(Cl)Cl [hexachlorobutadiene],Henry solubility constant Hcp at 293 K,[1]; [4],0.0004
same,Henry solubility constant Hcp,[2]; [8],0.00096
OO [hydrogen peroxide],Henry solubility constant Hcp at 293 K,[1]; reference: Yoshizumi et al. (1984),1400
same,Henry solubility constant Hcp,[2]; reference: Huang and Chen (2010),1100
same,Henry solubility constant Hcp,[2]; reference: Hwang and Dasgupta (1985),670
same,Henry solubility constant Hcp,[2]; reference: Lind and Kok (1994),990
same,Henry solubility constant Hcp,[2]; reference: O’Sullivan et al. (1996),820
same,Henry solubility constant Hcp,[2]; reference: Rivera-Rios (2018),1200
same,Henry solubility constant Hcp,[2]; reference: Zhou and Lee (1992),850
OBr [hypobromous acid],Henry solubility constant Hcp at 293 K,[1]; [14],> 19
same,Henry solubility constant Hcp at 293 K,[1]; reference: McCoy et al. (1990),19
OCl [hypochlorous acid],Henry solubility constant Hcp at 293 K,[1]; [14],9.1
same,Henry solubility constant Hcp at 293 K,[1]; reference: McCoy et al. (1990),9
same,Henry solubility constant Hcp,[2]; reference: Hanson and Ravishankara (1991),4.7
same,Henry solubility constant Hcp,[2]; reference: Holzwarth et al. (1984),6
same,Henry solubility constant Hcp,[2]; reference: Imagawa (1950),12
same,Henry solubility constant Hcp,[2]; reference: Ourisson and Kastner (1939),6.4
CCCC(=O)OO[N+](=O)[O-] [nitro butaneperoxoate],Henry solubility constant Hcp at 293 K,[1]; [15],0.023
CC(C)C(=O)OO[N+](=O)[O-] [peroxy-isobutyryl nitrate],Henry solubility constant Hcp at 293 K,[1]; [15],0.0099
"COP(=O)(OC)OC [phosphoric acid, trimethyl ester]",Henry solubility constant Hcp at 293 K,[1]; [16],1400
ClC1=C(Cl)[C@]2(Cl)[C@H]3[C@H](Cl)[C@@H](Cl)C[C@H]3[C@@]1(Cl)C2(Cl)Cl [trans-chlordane],Henry solubility constant Hcp,[2]; [17],0.034
ClC1=C(Cl)C2(Cl)C3C(Cl)C(Cl)C(Cl)C3C1(Cl)C2(Cl)Cl (stereo not drawn) [trans-nonachlor],Henry solubility constant Hcp,[2]; [17],0.031
O=C(O)C(Br)(Br)Br [tribromoethanoic acid],Henry solubility constant Hcp,[2]; reference: Bowden et al. (1998a),2900
O=C(O)C(Cl)(Cl)Cl [trichloroethanoic acid],Henry solubility constant Hcp,[2]; reference: Bowden et al. (1998b),730
CCOP(=O)(OCC)OCC [triethylphosphate],Henry solubility constant Hcp at 293 K,[1]; [16],270
"CCOC(=O)C(F)(F)F [trifluoroethanoic acid, ethyl ester]",Henry solubility constant Hcp,[2]; reference: Kutsuna and Kaneyasu (2021),0.00071
same,Henry solubility constant Hcp,[2]; reference: Kutsuna et al. (2005),0.00089
"COC(=O)C(F)(F)F [trifluoroethanoic acid, methyl ester]",Henry solubility constant Hcp,[2]; reference: Kutsuna et al. (2004),0.0012
FC(F)F [trifluoromethane],Henry solubility constant Hcp,[2]; reference: Maaßen (1995),0.00012
same,Henry solubility constant Hcp,[2]; reference: Miguel et al. (2000),0.00021
same,Henry solubility constant Hcp,[2]; reference: Zheng et al. (1997),0.00013
CN(C)C [trimethylamine],Henry solubility constant Hcp,[2]; reference: Amoore and Buttery (1978),0.076
same,Henry solubility constant Hcp,[2]; reference: Christie and Crisp (1967),0.095
same,Henry solubility constant Hcp,[2]; reference: Leng et al. (2015a),0.084
C[Si](C)(C)O [trimethylsilanol],Henry solubility constant Hcp,[2]; reference: Xu and Kropscott (2014),0.07
CCCOP(=O)(OCCC)OCCC [tripropyl phosphate],Henry solubility constant Hcp at 293 K,[1]; [16],15
COc1cc(CO)ccc1O [vanillyl alcohol],Henry solubility constant Hcp,[2]; [18],96000
CCOCc1ccc(O)c(OC)c1 [vanillyl ethyl ether],Henry solubility constant Hcp,[2]; [18],410
[Xe] [xenon],Henry solubility constant Hcp,[2]; reference: Crovetto et al. (1982),4.2e-05
same,Henry solubility constant Hcp,[2]; reference: Krause and Benson (1989),4.3e-05
same,Henry solubility constant Hcp,[2]; reference: Morrison and Johnstone (1954),4.2e-05
same,Henry solubility constant Hcp,[2]; reference: von Antropoff (1910),4.4e-05
COc1cc(CCC(C)=O)ccc1O [zingerone],Henry solubility constant Hcp,[2]; [18],12000
"ClC1C(Cl)C(Cl)C(Cl)C(Cl)C1Cl (stereo not drawn) [α-1,2,3,4,5,6-hexachlorocyclohexane]",Henry solubility constant Hcp,[2]; reference: Kucklick et al. (1991),1.3
same,Henry solubility constant Hcp,[2]; [19],1.7
C=C/C(C)=C/C/C=C(\C)CCC=C(C)C [α-farnesene],Henry solubility constant Hcp,[2]; reference: Schuhfried et al. (2015),8.1e-06
CC1=CCC(C(C)C)C=C1 (stereo not drawn) [α-phellandrene],Henry solubility constant Hcp,[2]; [20],0.00018
"ClC1C(Cl)C(Cl)C(Cl)C(Cl)C1Cl (stereo not drawn) [β-1,2,3,4,5,6-hexachlorocyclohexane]",Henry solubility constant Hcp,[2]; [19],28
CC(=O)/C=C/C1=C(C)CCCC1(C)C [β-ionone],Henry solubility constant Hcp,[2]; reference: Fichan et al. (1999),1.2
C=C1C=CC(C(C)C)CC1 (stereo not drawn) [β-phellandrene],Henry solubility constant Hcp,[2]; [20],0.00018
